Values quoted from earlier work, collected in paper PMC12119672, “Development and evaluation of [^11C]DPA-813 and [^18F]DPA-814: novel TSPO PET tracers insensitive to human single nucleotide polymorphism rs6971” (European Journal of Nuclear Medicine and Molecular Imaging, 2025).
Marks after values point to notes of the source that are not given here.

Conditions: distribution coefficient; cited from earlier work

For `CCN(CC)C(=O)Cc1c(-c2ccc(OC)cc2)nn2c(C)cc(C)nc12` [DPA-713], the logD7.4 is given as 2.4 ^b.
